The test has as its system COVID-19. The class given is in vivo, human.

The text below walks through data of patent publication US20230227546A1, “TYPE 2 CYTOKINES AS PREDICTORS OF DISEASE SEVERITY AND/OR AS T[…] FOR COVID-19” (priority 2020, published 2023).

As to “Dupilumab: anti-human IL4Rα monoclonal antibody that blocks IL-13 and IL-4 signaling; sold as DUPIXENT”, for the setting “31 patients”, the “Deceased (number of patients) With Concurrent Dupilumab” value worked out at 0 and the “Ventilated (number of patients) With Concurrent Dupilumab” value was 0. Further, the “Hospitalized (number of patients) With Concurrent Dupilumab” value (31 patients, values less than 20 suppressed) is given as less than 20. Moreover, the “Odds Ratio, Hospitalized” value (Dupilumab vs matched controls 1:5, conditional logistic regression) was found to be 0.64. Moreover, where the note is “compared to matched controls”, the rate of death entry is “lower rate”, the rate of hospitalization entry was “lower rate” and the rate of ventilation result was “lower rate”.
